In US6649626B1, “N-substituted 1-(lactone) isoquinolones for treating nervous disorders” (Centre National de la Recherche Scientifique (CNRS), priority 1999, dated 2003):

Key:
[1] = target: T1, benzodiazepine-binding site of the GABA-A receptor (Rattus norvegicus, UniProt P18508+P62813); test: Displacement of tritiated flunitrazepam from brain membranes
T1 construct: IC50 Flu / BZ receptor; other: cerebellum (ce); other: cerebellum (ce; BZ1 subtype); other: 10 μM; cerebellum; other: 100 μM; other: 0.5 μM

[2] = tested on: picrotoxin-binding site of the GABA-A receptor; test: Displacement of 35S-TBPS from brain membranes; parameters: species or system rats
[3] = target: T2, α1β2γ2 subtype of the GABA receptor (Rattus norvegicus, UniProt P18508+P62813+P63138); test: Electrophysiology: modulation of GABA currents in Xenopus oocytes expressing recombinant GABA-A receptors; type: cell-based; details: for % stimulation of the GABA currents / % stimulation of the GABA currents (100 μM): α1β2γ2 in oocytes; for % stimulation of the GABA currents (100 μM): 100 μM compound with GABA
T2 construct: expressed in transfected cells; host or cells: Xenopus laevis oocytes (cRNA injection)

[4] = tested on: GABA-binding site of the GABA-A receptor; test: Displacement of tritiated muscimol from brain membranes; details: for Muscimol: stimulation: stimulation instead of displacement
[5] = tested on: benzodiazepine-binding site of the GABA-A receptor; test: Displacement of tritiated flunitrazepam from brain membranes

T1 sequence (P62813 28-455): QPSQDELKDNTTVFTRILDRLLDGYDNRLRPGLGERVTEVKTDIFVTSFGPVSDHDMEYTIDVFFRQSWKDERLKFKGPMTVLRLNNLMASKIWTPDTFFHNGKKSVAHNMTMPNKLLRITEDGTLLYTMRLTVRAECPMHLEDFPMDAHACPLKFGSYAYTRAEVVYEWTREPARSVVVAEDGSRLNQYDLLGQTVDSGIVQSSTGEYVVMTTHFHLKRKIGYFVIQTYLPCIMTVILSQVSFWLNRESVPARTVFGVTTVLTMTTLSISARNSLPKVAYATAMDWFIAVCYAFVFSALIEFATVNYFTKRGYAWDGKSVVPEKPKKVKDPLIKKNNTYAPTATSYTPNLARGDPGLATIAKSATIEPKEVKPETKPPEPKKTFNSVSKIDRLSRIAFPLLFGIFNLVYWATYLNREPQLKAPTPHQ
T1 sequence (P18508 39-466): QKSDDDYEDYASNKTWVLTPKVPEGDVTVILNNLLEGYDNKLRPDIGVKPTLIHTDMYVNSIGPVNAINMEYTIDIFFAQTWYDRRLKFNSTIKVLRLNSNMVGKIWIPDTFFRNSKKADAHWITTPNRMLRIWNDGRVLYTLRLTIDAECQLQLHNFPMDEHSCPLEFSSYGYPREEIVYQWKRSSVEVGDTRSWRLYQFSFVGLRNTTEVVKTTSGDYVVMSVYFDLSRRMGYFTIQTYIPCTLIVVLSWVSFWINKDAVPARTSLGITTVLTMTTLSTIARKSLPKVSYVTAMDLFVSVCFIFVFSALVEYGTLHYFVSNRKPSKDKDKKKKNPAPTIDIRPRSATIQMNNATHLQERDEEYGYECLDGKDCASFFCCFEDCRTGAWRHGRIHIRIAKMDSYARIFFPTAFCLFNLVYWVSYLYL
T1 sequence (P63138 26-474 partner): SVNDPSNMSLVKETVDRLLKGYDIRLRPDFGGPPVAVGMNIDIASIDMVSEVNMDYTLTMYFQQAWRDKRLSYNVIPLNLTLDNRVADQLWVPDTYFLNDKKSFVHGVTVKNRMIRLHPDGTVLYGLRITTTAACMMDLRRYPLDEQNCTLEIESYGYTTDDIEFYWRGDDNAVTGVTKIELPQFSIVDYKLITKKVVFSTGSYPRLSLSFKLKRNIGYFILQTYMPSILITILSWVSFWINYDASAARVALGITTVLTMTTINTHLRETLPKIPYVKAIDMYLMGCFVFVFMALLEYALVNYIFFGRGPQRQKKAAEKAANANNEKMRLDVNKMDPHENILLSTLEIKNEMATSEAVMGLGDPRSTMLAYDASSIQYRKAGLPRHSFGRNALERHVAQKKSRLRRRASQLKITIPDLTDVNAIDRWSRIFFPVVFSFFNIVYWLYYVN
T2 sequence (P62813 28-455): as the sequence (P62813 28-455) above
T2 sequence (P63138 25-474 limits assumed): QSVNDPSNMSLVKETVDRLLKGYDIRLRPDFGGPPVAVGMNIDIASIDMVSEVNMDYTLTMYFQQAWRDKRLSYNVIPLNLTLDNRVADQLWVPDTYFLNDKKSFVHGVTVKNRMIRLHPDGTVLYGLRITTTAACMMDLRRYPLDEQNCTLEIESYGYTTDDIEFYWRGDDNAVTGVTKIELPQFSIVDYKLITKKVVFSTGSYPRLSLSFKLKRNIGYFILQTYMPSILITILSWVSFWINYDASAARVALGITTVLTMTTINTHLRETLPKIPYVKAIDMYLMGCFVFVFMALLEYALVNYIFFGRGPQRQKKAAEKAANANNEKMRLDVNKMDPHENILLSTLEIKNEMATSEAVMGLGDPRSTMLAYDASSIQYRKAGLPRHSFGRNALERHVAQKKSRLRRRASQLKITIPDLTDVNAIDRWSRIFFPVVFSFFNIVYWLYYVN
T2 sequence (P18508 39-466): as the sequence (P18508 39-466) above

O=C1C=CC(C2c3ccccc3CCN2C(=O)OCc2ccccc2)O1 (racemic) [Compound 50]
Inhibition of the tritiated ligands % Flu ([1]; 0.5 μM, tissue not stated): 55%
Inhibition of the tritiated ligands % Flu ([1]; 10 μM, tissue not stated): 90%
Inhibition of the tritiated ligands % Flu (100 μM) ([1]; tissue not stated): 100%
Inhibition of the tritiated ligands % TBPS ([2]; 0.5 μM): 5%
Inhibition of the tritiated ligands % TBPS ([2]; 10 μM): 30%
% stimulation of the GABA currents ([3]; 0.1 μM compound): +26 ± 6%
% stimulation of the GABA currents (100 μM) [3]: +281 ± 35%
blockade of the stimulation by flumazenil (in words) ([3]; printed after the 0.1 μM value): completely blocked by flumazenil
Displacement of muscimol ([4]; 100 μM): 100 μM = 0%

O=C1C=CC(C2c3ccccc3CCN2C(=O)OCc2ccccc2)O1 (racemic) [Compound 51]
Inhibition of the tritiated ligands % Flu ([1]; 0.5 μM, tissue not stated): 0%
Inhibition of the tritiated ligands % Flu ([1]; 10 μM, tissue not stated): 50%
Inhibition of the tritiated ligands % Flu (100 μM) ([1]; tissue not stated): 85%
Inhibition of the tritiated ligands % TBPS ([2]; 0.5 μM): 0%
Inhibition of the tritiated ligands % TBPS ([2]; 10 μM): 20%
% stimulation of the GABA currents ([3]; 0.1 μM compound): 0%
% stimulation of the GABA currents (100 μM) [3]: +225 ± 68%
Displacement of muscimol ([4]; 100 μM): 100 μM = 0%

O=C1C=CC(C2c3ccccc3CCN2C(=O)Cc2ccccc2)O1 (racemic) [Compound 55]
Inhibition of the tritiated ligands % Flu (100 μM) ([1]; tissue not stated): 95%
Inhibition of the tritiated ligands % Flu ([5]; 0.5 μM, cerebellum): 30%
Inhibition of the tritiated ligands % Flu ([5]; 0.5 μM, cortex): 20%
Inhibition of the tritiated ligands % Flu ([5]; 10 μM, cerebellum): 80%
Inhibition of the tritiated ligands % Flu ([5]; 10 μM, cortex): 70%
% stimulation of the GABA currents ([3]; 0.1 μM compound): 0%
% stimulation of the GABA currents (100 μM) [3]: +33 ± 4%
Displacement of muscimol ([4]; 100 μM): 100 μM = 0%

O=C1C=CC(C2c3ccccc3CCN2C(=O)Cc2ccccc2)O1 (racemic) [Compound 56]
Inhibition of the tritiated ligands % Flu ([1]; 0.5 μM, cerebellum): 30%
Inhibition of the tritiated ligands % Flu ([1]; 0.5 μM, cortex): 20%
Inhibition of the tritiated ligands % Flu ([1]; 10 μM, cerebellum): 80%
Inhibition of the tritiated ligands % Flu ([1]; 10 μM, cortex): 70%
Inhibition of the tritiated ligands % Flu (100 μM) ([1]; cerebellum): 85%
Inhibition of the tritiated ligands % Flu (100 μM) ([1]; cortex): 90%
block of the stimulation caused by 20 μM of 164B ([3]; 100 μM): blocks the stimulation caused by 20 μM of 164B
% stimulation of the GABA currents (100 μM) [3]: +10 ± 17%
Displacement of muscimol ([4]; 100 μM): 100 μM = 0%

O=C1C=CC(C2c3ccccc3CCN2C(=O)Oc2ccccc2)O1 (racemic) [Compound 57]
Inhibition of the tritiated ligands % Flu ([1]; 0.5 μM, cerebellum): 35%
Inhibition of the tritiated ligands % Flu ([1]; 0.5 μM, cortex): 25%
Inhibition of the tritiated ligands % Flu ([1]; 10 μM, cerebellum): 90%
Inhibition of the tritiated ligands % Flu ([1]; 10 μM, cortex): 75%
Inhibition of the tritiated ligands % Flu (100 μM) ([1]; cerebellum): 90%
Inhibition of the tritiated ligands % Flu (100 μM) ([1]; cortex): 85%
% stimulation of the GABA currents ([3]; 0.1 μM compound): 0%
% stimulation of the GABA currents (100 μM) [3]: +175 ± 13%
Displacement of muscimol ([4]; 10 μM): 0%
Muscimol: stimulation ([4]; 100 μM): 10-20%

O=C1C=CC(C2c3ccccc3CCN2C(=O)Oc2ccccc2)O1 (racemic) [Compound 58]
Inhibition of the tritiated ligands % Flu (100 μM) ([1]; tissue not stated): 70%
Inhibition of the tritiated ligands % Flu ([5]; 0.5 μM, tissue not stated): 0%
Inhibition of the tritiated ligands % Flu ([5]; 10 μM, tissue not stated): 45%
Inhibition of the tritiated ligands % TBPS ([2]; 10 μM): 0%
% stimulation of the GABA currents ([3]; 0.1 μM compound): 0%
% stimulation of the GABA currents (100 μM) [3]: +159 ± 8%
Displacement of muscimol ([4]; 100 μM): 100 μM = 0%

O=C1C=CC(C2c3ccccc3CCN2C(=O)c2ccccc2)O1 (racemic) [Compound 60]
Inhibition of the tritiated ligands % Flu ([1]; 0.5 μM, cerebellum): 35%
Inhibition of the tritiated ligands % Flu ([1]; 0.5 μM, cortex): 25%
Inhibition of the tritiated ligands % Flu ([1]; 10 μM, cerebellum): 90%
Inhibition of the tritiated ligands % Flu ([1]; 10 μM, cortex): 80%
Inhibition of the tritiated ligands % Flu (100 μM) ([1]; tissue not stated): 90%
% stimulation of the GABA currents ([3]; 0.1 μM compound): 0%
% stimulation of the GABA currents (100 μM) [3]: +14 ± 13%
Displacement of muscimol ([4]; 100 μM): 100 μM = 0%

Cc1ccc(S(=O)(=O)N2CCc3ccccc3C2[C@H]2CCC(=O)O2)cc1 (mixture of isomers) [Compound 67, (±)-(1R,2′R)-1-(2,3,4,5-Tetrahydro-5-oxo-2-furyl)-2-N-p-toluenesulfonyl-1,2,3,4-tetrahydroisoquinoline]
Inhibition of the tritiated ligands % Flu ([1]; 10 μM, tissue not stated): 20%
Inhibition of the tritiated ligands % Flu (100 μM) ([1]; cerebellum): 50%
Inhibition of the tritiated ligands % Flu (100 μM) ([1]; cortex): 30%
Inhibition of the tritiated ligands % Flu ([5]; 0.5 μM, tissue not stated): 0%
% stimulation of the GABA currents ([3]; 0.1 μM compound): 7 ± 5%
% stimulation of the GABA currents (100 μM) [3]: +579 ± 106%
% stimulation of the GABA currents (100 μM) ([3]; listed as (+/−) 67): +579%
Muscimol: stimulation ([4]; 100 μM): Muscimol: 5-10% stimulation at 100 μM

Cc1ccc(S(=O)(=O)N2CCc3ccccc3C2C2CCC(=O)N2)cc1 (racemic) [Compound 73]
% stimulation of the GABA currents (100 μM) [3]: 26 ± 8%

Cc1ccc(S(=O)(=O)N2C=Cc3ccccc3C2[C@H]2CCC(=O)O2)cc1 (mixture of isomers) [Compound 76, (±)-(1R,2′R)-2-N-Tosyl-1-(2,3,4,5-tetrahydro-5-oxo-2-furyl)-1,2-dihydroisoquinoline]
Inhibition of the tritiated ligands % Flu (100 μM) ([1]; tissue not stated): 0%
% stimulation of the GABA currents ([3]; 10 μM compound): 97 ± 2%
% stimulation of the GABA currents (100 μM) [3]: +481 ± 116%
Muscimol: stimulation ([4]; 100 μM): 20% stimulation at 100 μM

Cc1ccc(S(=O)(=O)N2CCc3ccccc3C2C2CCC(=O)O2)cc1 (single isomer, unassigned) [Compound 68]
% stimulation of the GABA currents (100 μM) [3]: +184 ± 43%
% stimulation of the GABA currents (100 μM) ([3]; listed as (−) 68): +184%

Cc1ccc(S(=O)(=O)N2CCc3ccccc3C2C2CCC(=O)O2)cc1 (single isomer, unassigned) [Compound 69]
portion of the stimulatory activity due to a binding site distinct from those for the benzodiazepines [3]: < 70%
% stimulation of the GABA currents (100 μM) [3]: +859 ± 75%
% stimulation of the GABA currents (100 μM) ([3]; listed as (−) 69): +859%
% of the stimulation inhibited by flumazenil ([3]; stimulation by 20 μM compound, 1 μM flumazenil): 28%
